Source: ChEMBL document CHEMBL3832025, “DailyMed|setid=d3417226-1f42-40cd-82ac-bc31ddf79b97 | OFLOXACIN - ofloxacin tablet, film coated|PD-Rx Pharmaceuticals, Inc”
Where “and” joins values, the source holds several entries; their conditions need not be identical. Identical values can stand only once.

Tests used:
Assay type in all cases: ADME, organism-based
Homo sapiens [1] = assay: (§1) Pharmcokinetic parameters for Ofloxacin following single oral dose administration of Ofloxacin to healthy male volunteers, body mass 70 to 80 kg.; parameters: dose 300 mg, dose 200 mg, dose 400 mg, route oral; settings: in vivo, po, dosed compound id 33, dosed compound name OFLOXACIN, gender male, regimen Single dose, tissue Serum
[2] = as §1; parameters: dose 300 mg, dose 200 mg, dose 400 mg, route oral; settings: human, in vivo, dosed compound id 33, dosed compound name OFLOXACIN, regimen Single dose
Homo sapiens [3] = assay: (§2) Steady-state pharmacokinetic parameters for Ofloxacin following multiple oral and intravenous (IV) doses of Ofloxacin to healthy 70 to 80 kg male volunteers.; parameters: dose 200 mg, dose 400 mg, dose 300 mg, route oral, route iv; settings: in vivo, dosed compound id 33, dosed compound name OFLOXACIN, gender male, regimen Multiple dose, tissue Serum
[4] = as §2; parameters: dose 200 mg, dose 400 mg, dose 300 mg, route oral, route iv; settings: human, in vivo, dosed compound id 33, dosed compound name OFLOXACIN, regimen Multiple dose; for AUC: gender male, tissue Serum
[5] = male, route oral, tissue Plasma

SMILES: CC1COc2c(N3CCN(C)CC3)c(F)cc3c(=O)c(C(=O)O)cn1c23 (stereo not given) [OFLOXACIN]
- AUC(0 to inf) (Homo sapiens [1]): 14100 ng·h/mL and 21200 ng·h/mL and 31400 ng·h/mL
- Cmax (Homo sapiens [1]): 2400 ng/mL and 2900 ng/mL
- Cmax ([2]; po, gender male, tissue Serum): 1500 ng/mL
- Tmax [2, 5]: 1 to 2 h
- bioavailability [2, 5]: 98%
- AUC(0 to 12) ss (Homo sapiens [3]; study dosing duration 60 minutes): 43500 ng·h/mL
- Cmax ss (Homo sapiens [3]; po): 2200 ng/mL and 3600 ng/mL and 4600 ng/mL
- AUC ([4]; read-out: AUC(0 to 12) ss): 41200 ng·h/mL
- AUC ([4]; read-out: AUC(0 to inf) ss): 61000 ng·h/mL
- half-life ([4]; male, route oral, tissue Plasma, read-out: t1/2 ss): 4 to 5 h
